This note sets out measurements from patent US5840740A, “Aminosterol compounds and a method of treating infection using the aminosterol compounds” (priority 1995, dated 1998).

For one data set, the system named is S. aureus. The data set can be described thus: Antibiotic activity (MIC). The class given is cell-based. The settings on record: Staphylococcus aureus.
The test system of data set [1] is chick embryo vitelline capillaries. The data set is described as follows: Chick embryo vitelline capillary regression assay. Particulars: for Chick embryo diss. assay, Minimum Effective Concentration: Table II; for vascular reactivity (capillary regression): 60 min. Also on record: key to vascular reactivity (capillary regression): +: Vascular reactivity; 0: No vascular reactivity; +/-: Equivocal reactivity. Format: in vivo. Here is the method:
Using the chick embryo vitelline capillaries assay, compounds were tested for their ability to induce capillary regression. Each compound was applied in 0.1 ml of 15% Ficol 400 and PBS onto the embryo, and vascular regression was assessed after 60 minutes.
The 3-day chick embryo consists of an embryonic disc from which numerous vessels emerge and return, forming a "figure 8"-shaped structure--the embryo in the center with vascular loops extending outward over both poles. […] Following a lag period of around 15 minutes, the constriction of continuity between capillary and secondary vessels, generally on the "avenous" side, was observed. Continued pulsatile blood flow progressed, resulting in a "swelling" of the blind tube, followed by a pinching off of the remaining connection and formation of an enclosed vascular sac resembling a "blood island." This process progressed until only the largest vessels remained intact.

The subject of another data set is Xenopus tadpole. Particulars: stage 59-60, 10 μg/ml; for pharmacological response in tadpole: in words.
The test system of a further data set is HM. The data set is described as follows: HM MTT assay. Format: cell-based. Particulars: Table II, Minimum Effective Concentration.
The subject of a further data set is B16 melanoma. The data set can be described thus: B16 melanoma growth in C57B mice. Particulars: squalamine 5 mg/kg/day; compound 1436 10 mg/kg/every 3 days. Format: in vivo, mouse. As to the method:
The growth of B16 melanoma in C57B mice is dependent upon neovascularization.
Using the growth of B16 melanoma cells in C57B mice, a recognized model for the evaluation of inhibitors of angiogenesis on the growth of cancers, the effects of subcutaneous, intraperitoneal and oral administration of squalamine were evaluated.
In this model, there was observed little evidence of metastasis with or without treatment with chemotherapeutic agents.
Based on the idea that tumor growth involves both the clonal expansion of a malignant cell along with the development of a supporting vascular supply, a combination of compound 1436 with squalamine was tested to determine whether it would achieve a synergistic effect on solid tumor growth. This concept was evaluated in the B16 melanoma model.
Animals were implanted with B16 melanoma followed by treatment with compound 1436 or 1256 administered in a combined schedule or separately. […] Thus, a combination of these two compounds achieves a therapeutic benefit in tumors dependent on neovascularization that may prevent metastatic spread.

Data set [2] has as its system human coronary artery smooth muscle. The data set is described as follows: Proliferation of human coronary artery smooth muscle in vitro. The settings on record: in words (1436: about 11 μg/ml). Format: cell-based. An excerpt: Aminosterols of the invention may also have utility in inhibiting the growth factor mediated proliferation of smooth muscle within the artery. Following coronary angioplasty, reocclusion commonly occurs, secondary to reparative proliferation of the vascular smooth muscle within the wall of the surgically manipulated blood vessel. This process generally takes place over the course of 7-10 days. To evaluate whether an agent could prevent the growth factor mediated proliferation of smooth muscle within the artery, compound 1436 was evaluated in vitro for its effect on the proliferation of human coronary artery smooth muscle. Results for compound 1436 are shown in FIG. 13, and those for squalamine are shown in FIG. 14, with FIG. 15 being a composite logarithmic plot.

Data set [3] in a line: Fasting blood glucose in mice. Format: in vivo, mouse (male CD-1). Particulars: i.v.; in words. Here is the method:
To study the effect of steroid administrator or the NHE responsible for secretion of insulin, several of the aminosterols from shark liver were administered to fasting mice. Male CD-1 mice were assigned to one of four treatment groups. Whole blood glucose was tested using glucometer (Lifescan Glucometer II and One Touch test strips). Statistical analysis was via one-way analysis of variance (ANOVA) followed by subsequent Bonferonni's t-test.

Data set [4] in a line: Arterial resistance / pressure in the rat. Format: in vivo. The settings on record: 30 minutes; noradrenaline 40 μg.
Description: A 200-g rat was catheterized in the right carotid artery, and the compound was introduced over a ten-second period to a total dosage of 5 mg/kg.
At that time, 40 μg of noradrenaline was introduced.
The next data set addresses rabbit NHE3 (Oryctolagus cuniculus, UniProt P26432). The settings on record: 10 μg/ml, acid preloaded.
In another data set the test system is HIV. The data set can be described thus: Inhibition of HIV replication (P-24 Elisa). Format: cell-based. Particulars: 7 days.
The next data set relates to Xenopus laevis heart. The data set is described as follows: Isolated frog heart beating ex vivo. Particulars: 10 μg/ml, room temperature; about one hour without compound. Here is the method:
To determine if compound 1436 has such utility, the following experiment was performed. The heart of a juvenile Xenopus laevis frog was dissected from the living animal. The heart was placed into a Petri dish containing Krebs-Ringer buffer with adrenaline 50 μg/ml, and examined with the naked eye. At room temperature, the heart continued beating in a coordinated fashion (atrial beat followed by ventricular beat) for about one hour. In the presence of 10 μg/ml of compound 1436, spontaneous beating persisted up to 24 hours.

A short description of data set [5]: Hematological profile in L1210-inoculated mice. Particulars: L1210 mice; cisplatin 8 mg/kg ip or compound 1436 10 mg/kg ip q4d.
Description: C57B mice were inoculated with L1210 lymphoblastic leukemia cells at an inoculum that causes leukemia in 100% of animals.
Data set [6] relates to PHA-stimulated human lymphocytes. The data set is described as follows: Inhibition of mitogen (PHA)-stimulated growth of human T-cells. Format: cell-based. The settings on record: in words; 10 μg/ml. The text has this: Results are tabulated below.
The test system of another data set is Murine L1210 leukemia. The data set can be described thus: Growth inhibition in vitro. The settings on record: 10 μg/ml. The class given is cell-based. The text has this: (§1) As set forth in Table 7 below, all malignant tumors evaluated in tissue culture, endothelial cells and vascular smooth muscle cells were sensitive to inhibition. Thus, compound 1436 has application in the control of growth factor dependent proliferation of many types of tissue.

In data set [7] the test system is Human ovarian carcinoma SKOV3. The data set is described as follows: Growth inhibition in vitro. Format: cell-based. Particulars: 10 μg/ml.
Description: as §1

In the next data set the test system is Lewis lung carcinoma. The data set is described as follows: Growth inhibition in vitro. Format: cell-based. Particulars: 10 μg/ml.
Description: as §1

A further data set has as its system Murine B16 melanoma. The data set is described as follows: Growth inhibition in vitro. Format: cell-based. The settings on record: 10 μg/ml.
Description: as §1

Data set [8] deals with Human coronary artery smooth muscle cells. The data set is described as follows: Growth inhibition in vitro. Format: cell-based. Particulars: 10 μg/ml.
Description: as §1

Data set [9] has as its system human umbilical venous endothelial cells. The data set can be described thus: Growth inhibition in vitro. The class given is cell-based. The settings on record: 10 μg/ml.
Description: as §1

Data set [10] relates to Human microvascular endothelial cells. The data set can be described thus: Growth inhibition in vitro. The class given is cell-based. The settings on record: 10 μg/ml.
Description: as §1

Data set [11] concerns Human colon carcinoma HT29. The data set is described as follows: Growth inhibition in vitro. Format: cell-based. Particulars: 10 μg/ml.
Description: as §1

For data set [12], the system named is bovine pulmonary endothelial cells. The data set can be described thus: Growth inhibition in vitro. The settings on record: 10 μg/ml. Format: cell-based.
Description: as §1

Another data set deals with Human melanoma WM 1617. The data set can be described thus: Growth inhibition in vitro. The settings on record: 10 μg/ml. Format: cell-based.
Description: as §1

For data set [13], the system named is Human colon carcinoma SW948. The data set can be described thus: Growth inhibition in vitro. The class given is cell-based. The settings on record: 10 μg/ml.
Description: as §1

Data set [14] deals with malignant tumors, endothelial cells and vascular smooth muscle cells. The data set can be described thus: Inhibition of growth of a spectrum of cells. Format: cell-based. Particulars: in words.
Description: as §1

Data set [15] in a line: Growth and weight gain in mice. The class given is in vivo, mouse (C57B). As to the method:
Animals were dosed QTD (i.p.) starting on Day 1. […] Animals receiving 5 mg/kg QTD experienced about a 50% reduction in growth, compared to untreated controls, while animals receiving 1 mg/kg QTD were affected by about 10%. […] They appeared very much like hypophysectamized animals might appear.

A short description of a further data set: Chemical stability. The class given is physicochemical.

The structures appear in SMILES notation. Converted amounts (≈) assume the structure as drawn. “Also recorded” adds a separate entry of the source. Where two headings read alike, the source gives them in different places.

rabbit NHE3, sequence (P26432 30-832): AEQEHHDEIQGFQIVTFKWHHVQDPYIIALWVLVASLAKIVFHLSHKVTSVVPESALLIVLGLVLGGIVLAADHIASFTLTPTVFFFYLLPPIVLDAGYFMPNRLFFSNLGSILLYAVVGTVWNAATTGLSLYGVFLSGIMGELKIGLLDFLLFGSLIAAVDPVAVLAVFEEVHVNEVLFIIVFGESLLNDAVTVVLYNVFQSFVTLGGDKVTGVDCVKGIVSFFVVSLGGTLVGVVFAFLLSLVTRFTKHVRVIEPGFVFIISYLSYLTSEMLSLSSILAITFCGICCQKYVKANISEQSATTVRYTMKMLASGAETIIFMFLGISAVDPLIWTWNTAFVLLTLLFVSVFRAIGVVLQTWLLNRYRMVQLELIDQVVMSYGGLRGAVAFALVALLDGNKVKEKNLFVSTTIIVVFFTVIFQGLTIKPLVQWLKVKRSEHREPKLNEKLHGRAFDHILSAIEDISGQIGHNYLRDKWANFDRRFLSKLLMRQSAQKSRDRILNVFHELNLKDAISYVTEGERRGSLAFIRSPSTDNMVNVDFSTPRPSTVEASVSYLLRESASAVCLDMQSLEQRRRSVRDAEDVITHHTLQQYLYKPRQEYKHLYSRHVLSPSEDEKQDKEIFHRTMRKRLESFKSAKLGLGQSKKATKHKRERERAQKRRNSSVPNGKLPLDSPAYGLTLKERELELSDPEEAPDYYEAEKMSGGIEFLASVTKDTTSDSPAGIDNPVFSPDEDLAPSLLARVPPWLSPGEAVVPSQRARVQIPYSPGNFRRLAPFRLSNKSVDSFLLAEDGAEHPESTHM
Description for rabbit NHE3: For cells not acid-preloaded, the actual internal pH value was monitored as a function of time following addition of squalamine, with the results depicted in FIG. 1B.
PS120 fibroblasts transfected with rabbit NHE3 were grown and acid preloaded by exposure to 40 mM NH4 C1 as described above in conjunction with FIGS. 1A and 1B. Internal cellular pH changes expressed as the rate of pH recovery as a function of restored extracellular sodium ion concentration following exposure to 10 μg/ml of the compound were assayed with the fluorescent dye BCECF-AM as described above.

On to `CC(COS(=O)(=O)O)C(=O)CC[C@@H](C)[C@H]1CC[C@H]2[C@@H]3[C@H](O)C[C@H]4C[C@@H](NCCCNCCCCN)CC[C@]4(C)[C@H]3CC[C@]12C` (stereo partly drawn), for which, in the data set with S. aureus, the MIC was 8 µg/mL (≈ 12.5 µM).
With `CC(C)CCC[C@@H](C)[C@H]1CC[C@H]2[C@@H]3[C@H](O)C[C@H]4C[C@H](NCCCNCCCCN)CC[C@]4(C)[C@H]3CC[C@]12C` [Compound 370], in [1], the “Chick embryo diss. assay, Minimum Effective Concentration” value is > 10 µg. Besides, the “pharmacological response in tadpole” value with Xenopus tadpole was “pharmacologic activity similar to that seen for FX 3”. Moreover, in the data set on HM, the minimal effective concentration was determined as 40 µg/mL.
In the case of `CC(C)[C@@H](CC[C@@H](C)[C@H]1CC[C@H]2[C@@H]3[C@H](O)C[C@H]4C[C@@H](NCCCNCCCCNCCCN)CC[C@]4(C)[C@H]3CC[C@]12C)OS(=O)(=O)O` [Compound 1436], the “effect on B16 tumor volume, single agent and combination” value in the data set with B16 melanoma is given as “no significant impact on tumor volume”. For the same compound, in [2], the “growth suppression / viability of smooth muscle cells” value was “maintained in a quiescent state in the presence of this steroid at about 11 μg/ml without loss of viability; also recorded: suppress in vitro the growth of human coronary artery smooth muscle”. For the same compound, the hyperglycemia result in [3] is “caused hyperglycemia in mice”. For the same compound, the “duration / reversibility of arterial effect” value in data set [4] was “followed for 30 minutes, without significant change; also recorded: readily reversible by standard pharmacological practice”. Further, the “inhibition of rabbit NHE3” value against rabbit NHE3 is reported as “inhibit rabbit NHE3”; at rabbit NHE3 (listed as compound 1436), “inhibitor of NHE3”. For the same compound, the “vascular reactivity (capillary regression)” value was “+/-” in data set [1] (0.001 μg applied); “+” in data set [1] (0.01 μg applied); “+” in [1] (0.1 μg applied); “+” in data set [1] (1 μg applied); “+” in data set [1] (10 μg applied). Further, in data set [1], the “Chick embryo diss. assay, Minimum Effective Concentration” value was found to be 1 µg. For the same compound, the “effect on chick embryo vessels / blood” value in data set [1] (in words) is on record as “causes vitelline capillary regression with about the same potency as squalamine”. Also, in the data set on Xenopus tadpole, the time to death result is “about 2 hours”. Also, the “pharmacological response in tadpole” value in the data set on Xenopus tadpole is “Gradual reduction in overall activity. Heart beat remained strong, suggesting nervous system depression. Melanocytes over head and tail began to swell, first exhibiting visibly distinct nuclei, followed by rupture into fragments”. Also, the “P-24 Elisa” value was determined as 40561 with HIV (0.5 μM); 7464 in the data set on HIV (1 μM); 3426 in the data set with HIV (5 μM); 421 in the data set with HIV (10 μM); 9 in the data set on HIV (20 μM). In addition, the “persistence of spontaneous beating” value in the data set on Xenopus laevis heart was “up to 24 hours”. Besides, the “RBC, Early Time” value in [5] was 4.8 10^6 /mm^3. The “RBC, Late Time” value in data set [5] was 8.8 10^6 /mm^3. Also, in [5], the “WBC, Early Time” value is on record as 3.3 10^3 /mm^3. In data set [5], the “WBC, Late Time” value is on record as 3.7 10^3 /mm^3. For the same compound, the “inhibition of blast transformation” value in data set [6] is recorded as “inhibited blast transformation most potently”. Moreover, the “growth inhibition in vitro” value (with Murine L1210 leukemia; in data set [7]; with Lewis lung carcinoma; in the data set with Murine B16 melanoma; in data set [8]; in data set [9]) was “INHIBITED” throughout. The “growth inhibition in vitro” value (in [10]; in data set [11]; in data set [12]; with Human melanoma WM 1617; in data set [13]) was “INHIBITED” each time. For the same compound, the “growth inhibition of a broad spectrum of cells” value in data set [14] was “inhibit the growth of a very broad spectrum of cells”. Besides, the “effect on growth of mice” value in [15] (1 mg/kg QTD i.p.) is “about 10%”. The “reduction in growth of mice” value in data set [15] (5 mg/kg QTD i.p.) is given as ~50%. The “growth suppression in mice” value in [15] (10 mg/kg QTD i.p., about 1 month) was “almost completely inhibited”. The “clinical health of treated mice” value in [15] (QTD i.p.) was “all were active, normally proportioned, not-cachectic, and in excellent apparent clinical health”. The “suppression of growth and weight gain” value in [15] (in words, QTD i.p.) was “suppresses both linear growth and weight gain in growing mice in a dose-dependent fashion; also recorded: suppresses the growth of mice in a dose-dependent fashion”.
As for `CC(CCC(=O)C(C)(C)OS(=O)(=O)O)[C@H]1CCC2C3C(CC[C@@]21C)[C@@]1(C)CC[C@H](NCCCNCCCCN)C[C@@H]1C[C@H]3O` (stereo partly drawn) [FX 1A], the stability in water entry in the data set “Chemical stability” was “undergo conversion to another molecule (FX 1B) rapidly in water”.
